Consider 4 molecules from patent US11926627B1 (priority 2023, dated 2024).

Converted amounts (≈) assume the structure as drawn.

This test concerns multidrug-resistant (MDR) strains of Mycobacterium tuberculosis. Briefly: microbe, parasite or virus in culture. In kind it is cell-based. The settings on record: 192 h, read-out: Antitubercular activity against Mycobacterium tuberculosis MDR (MIC).
Regarding `COC(=O)c1c(C(=O)OC)c2ccc3cc(C)ccc3n2c1C(=O)c1ccc(Br)cc1` [7-METHYL-QUIN2, Dimethyl 1-(4-bromobenzoyl)-7-methylpyrrolo[1,2-α]quinoline-2,3-dicarboxylate], the MIC is 16 µg/mL (≈ 33.3 µM).

Take `COC(=O)c1c(C(=O)OC)c2ccc3cc(C)ccc3n2c1C(=O)c1ccc(Cl)cc1` [7-METHYL-QUIN4, Dimethyl 1-(4-chlorobenzoyl)-7-methylpyrrolo[1,2-α]quinoline-2,3-dicarboxylate]: the MIC stood at 4 µg/mL (≈ 9.18 µM).

With `CCOC(=O)c1cc(C(=O)c2ccc(Cl)cc2)n2c1ccc1cc(C)ccc12` [7-METHYL-QUIN3, Ethyl 1-(4-chlorobenzoyl)-7-methylpyrrolo[1,2-α]quinoline-3-carboxylate], the MIC was determined as 4 µg/mL (≈ 10.2 µM).

Turning to `COC(=O)c1c(C(=O)OC)c2ccc3cc(C)ccc3n2c1C(=O)c1ccc(F)cc1` [7-METHYL-QUIN1, Dimethyl 1-(4-fluorobenzoyl)-7-methylpyrrolo[1,2-α]quinoline-2,3-dicarboxylate], the MIC came out at 8 µg/mL (≈ 19.1 µM).
